Structures are written as SMILES. pIC50: −log10 of the molar value.

The test concerns the target T1, MAGL (Homo sapiens, UniProt Q99685).
T1 sequence (Q99685 1-303): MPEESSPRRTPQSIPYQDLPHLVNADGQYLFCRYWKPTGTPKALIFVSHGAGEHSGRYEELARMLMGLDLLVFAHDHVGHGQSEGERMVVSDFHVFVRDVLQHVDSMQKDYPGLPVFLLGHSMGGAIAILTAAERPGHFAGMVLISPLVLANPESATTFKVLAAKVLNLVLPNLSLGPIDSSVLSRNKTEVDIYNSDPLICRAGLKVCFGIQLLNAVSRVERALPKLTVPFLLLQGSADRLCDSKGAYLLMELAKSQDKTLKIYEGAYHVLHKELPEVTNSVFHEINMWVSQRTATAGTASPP
Briefly: MAGL inhibition, 2-AG assay (hydrolysis of 2-arachidonoylglycerol, arachidonic acid by mass spectrometry). The test is classed as biochemical. The conditions noted are these: 2-AG assay (footnote [b]). Put shortly:
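Human MAGL […] was preincubated 15 min at RT with compound ([…], 3-fold steps) in 50 mM Tris, 1 mM EDTA, 0.01% Tween. 2-AG (8 μM) was then added for 30 min at RT. Arachidonic acid was quantified by RapidFire SPE–triple quadrupole MS in negative ESI as its ratio to a d8-arachidonic acid standard.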
Regarding `CC1(O)CN(c2ccc(C3CN(C(=O)N4CC[C@@H]5OCC(=O)N[C@@H]5C4)C3)cc2)C1` [Example 199, (4aR,8aS)-6-[3-[4-(3-Hydroxy-3-methylazetidin-1-yl)phenyl]azetidine-1-carbonyl]-4,4a,5,7,8,8a-hexahydropyrido[4,3-b][1,4]oxazin-3-one], the negative-log IC50 (pIC50) is 6.56.

On to `CS(=O)(=O)c1cc(Cl)ccc1-c1ccc(C2CN(C(=O)N3CC[C@@H]4OCC(=O)N[C@@H]4C3)C2)cc1` [Example 173, (4aR,8aS)-6-(3-(4′-Chloro-2′-(methylsulfonyl)-[1,1′-biphenyl]-4-yl)azetidine-1-carbonyl)hexahydro-2H-pyrido[4,3-b][1,4]oxazin-3(4H)-one], for which the pIC50 is 9.40.

On to `CC(C)(C)OC(=O)NCCOc1cccc(C(c2ccccc2)C2CCN(C(=O)N3CC[C@@H]4OCC(=O)N[C@@H]4C3)CC2)c1` (stereo partly drawn) [Example 237, tert-Butyl (2-(3-((1-((4aR,8aS)-3-oxooctahydro-2H-pyrido[4,3-b][1,4]oxazine-6-carbonyl)piperidin-4-yl)(phenyl)methyl)phenoxy)ethyl)carbamate], for which the pIC50 is 9.00.

`COc1ccc(C(c2ccc(F)cc2)C2CCN(C(=O)N3CC[C@@H]4OCC(=O)N[C@@H]4C3)CC2)cc1` (single isomer, unassigned) [Example 71, (4aR,8aS)-6-(4-((S or R)-(4-Fluorophenyl)(4-methoxyphenyl)methyl)piperidine-1-carbonyl)hexahydro-2H-pyrido[4,3-b][1,4]oxazin-3(4H)-one]: the pIC50 was 9.70.

Regarding `COc1ccc(C(c2cccnc2)C2CCN(C(=O)N3CC[C@@H]4OCC(=O)N[C@@H]4C3)CC2)cc1OC` (single isomer, unassigned) [Example 136, (4aR,8aS)-6-[4-[(S or R)-(3,4-dimethoxyphenyl)-(3-pyridyl)methyl]piperidine-1-carbonyl]-4,4a,5,7,8,8a-hexahydropyrido[4,3-b][1,4]oxazin-3-one], the pIC50 is 7.85.

The molecule `CC(Oc1ccc(C(F)(F)F)cc1)C1CN(C(=O)N2CC[C@@H]3OCC(=O)N[C@@H]3C2)C1` (single isomer, unassigned) [Example 98, (4aR,8aS)-6-(3-((R or S)-1-(4-(Trifluoromethyl)phenoxy)ethyl)azetidine-1-carbonyl)hexahydro-2H-pyrido[4,3-b][1,4]oxazin-3(4H)-one] had a negative logarithm of the IC50 (pIC50) of 7.21.

In turn, `CC(Oc1ccc(C(F)(F)F)cc1)C1CN(C(=O)N2CC[C@@H]3OCC(=O)N[C@@H]3C2)C1` (stereo partly drawn) [Example 92, (4aR,8aS)-6-(3-(1-(4-(Trifluoromethyl)phenoxy)ethyl)azetidine-1-carbonyl)hexahydro-2H-pyrido[4,3-b][1,4]oxazin-3(4H)-one] gave a pIC50 of 7.70.

For `O=C1CO[C@H]2CCN(C(=O)N3CC(N4Cc5cccc(Cl)c5C4)C3)C[C@H]2N1` [Example 266, (4aR,8aS)-6-[3-(4-Chloroisoindolin-2-yl)azetidine-1-carbonyl]-4,4a,5,7,8,8a-hexahydropyrido[4,3-b][1,4]oxazin-3-one], the pIC50 was 6.34.

For `O=C1CO[C@H]2CCN(C(=O)N3CCC(c4ccnc5c4CCCC5)CC3)C[C@H]2N1` [Example 107, (4aR,8aS)-6-(4-(5,6,7,8-Tetrahydroquinolin-4-yl)piperidine-1-carbonyl)hexahydro-2H-pyrido[4,3-b][1,4]oxazin-3(4H)-one], the negative logarithm of the IC50 (pIC50) is 6.24.

The molecule `CC(c1ccc(C(F)(F)F)cc1)C1CN(C(=O)N2CC[C@@H]3OCC(=O)N[C@@H]3C2)C1` (single isomer, unassigned) [Example 103, (4aR,8aS)-6-(3-((S or R)-1-(4-(Trifluoromethyl)phenyl)ethyl)azetidine-1-carbonyl)hexahydro-2H-pyrido[4,3-b][1,4]oxazin-3(4H)-one] had a negative-log IC50 (pIC50) of 7.00.

With `O=C1CO[C@H]2CCN(C(=O)N3CCC(c4cccc(OC(F)(F)F)c4)C3)C[C@H]2N1` (single isomer, unassigned) [Example 221, (4aR,8aS)-6-[3-(S or R)-[3-(Trifluoromethoxy)phenyl]pyrrolidine-1-carbonyl]-4,4a,5,7,8,8a-hexahydropyrido[4,3-b][1,4]oxazin-3-one], the pIC50 was 6.75.

In turn, `COc1cc(C2CN(C(=O)N3CC[C@@H]4OCC(=O)N[C@@H]4C3)C2)ccc1C(C)(C)C` [Example 240, (4aR,8aS)-6-(3-(4-(tert-Butyl)-3-methoxyphenyl)azetidine-1-carbonyl)hexahydro-2H-pyrido[4,3-b][1,4]oxazin-3(4H)-one] had a negative logarithm of the IC50 (pIC50) of 8.70.

Take `Cc1noc(CC(c2ccc(F)cc2)C2CCN(C(=O)N3CC[C@@H]4OCC(=O)N[C@@H]4C3)CC2)n1` (stereo partly drawn) [Example 51, (4aR,8aS)-6-(4-(1-(4-Fluorophenyl)-2-(3-methyl-1,2,4-oxadiazol-5-yl)ethyl)piperidine-1-carbonyl)hexahydro-2H-pyrido[4,3-b][1,4]oxazin-3(4H)-one]: the pIC50 was 7.20.

In turn, `O=C1CO[C@H]2CCN(C(=O)N3CC(c4ccc(N5CCC(F)C5)cc4)C3)C[C@H]2N1` (stereo partly drawn) [Example 216, (4aR,8aS)-6-(3-(4-(3-Fluoropyrrolidin-1-yl)phenyl)azetidine-1-carbonyl)hexahydro-2H-pyrido[4,3-b][1,4]oxazin-3(4H)-one] gave a pIC50 of 7.64.

With `O=C1CO[C@H]2CCN(C(=O)N3CCC(c4cc(Cl)cc(OCC(F)(F)F)c4)C3)C[C@H]2N1` (single isomer, unassigned) [Example 238, (4aR,8aS)-6-((R or S)-3-(3-Chloro-5-(2,2,2-trifluoroethoxy)phenyl)pyrrolidine-1-carbonyl)hexahydro-2H-pyrido[4,3-b][1,4]oxazin-3(4H)-one], the pIC50 was 6.81.

`CC1(F)CN(c2ccc(C3CN(C(=O)N4CC[C@@H]5OCC(=O)N[C@@H]5C4)C3)cc2)C1` [Example 200, (4aR,8aS)-6-[3-[4-(3-Fluoro-3-methyl-azetidin-1-yl)phenyl]azetidine-1-carbonyl]-4,4a,5,7,8,8a-hexahydropyrido[4,3-b][1,4]oxazin-3-one] showed a pIC50 of 7.85.

Molecule `O=C1CO[C@H]2CCN(C(=O)N3CC(F)(c4ccc(Br)cc4)C3)C[C@H]2N1` [Example 122, (4aR,8aS)-6-(3-(4-Bromophenyl)-3-fluoroazetidine-1-carbonyl)hexahydro-2H-pyrido[4,3-b][1,4]oxazin-3(4H)-one] had a pIC50 of 7.05.

Turning to `O=C1CO[C@H]2CCN(C(=O)N3CC(c4ccc(N5CC(OC(F)(F)F)C5)cc4)C3)C[C@H]2N1` [Example 153, (4aR,8aS)-6-(3-(4-(3-(Trifluoromethoxy)azetidin-1-yl)phenyl)azetidine-1-carbonyl)hexahydro-2H-pyrido[4,3-b][1,4]oxazin-3(4H)-one], the pIC50 was 8.70.

Take `Cn1ncc2cc(C3CN(C(=O)N4CC[C@@H]5OCC(=O)N[C@@H]5C4)C3)ccc21` [Example 241, (4aR,8aS)-6-(3-(1-Methyl-1H-indazol-5-yl)azetidine-1-carbonyl)hexahydro-2H-pyrido[4,3-b][1,4]oxazin-3(4H)-one]: the negative logarithm of the IC50 (pIC50) was 6.61.

For the molecule `O=C1CO[C@H]2CCN(C(=O)N3CC(c4ccc(OC(F)(F)F)cc4)C3)C[C@H]2N1` [Example 120, (4aR,8aS)-6-[3-[4-(Trifluoromethoxy)phenyl]azetidine-1-carbonyl]-4,4a,5,7,8,8a-hexahydropyrido[4,3-b][1,4]oxazin-3-one], the pIC50 is 8.15.

With `CS(=O)(=O)c1cccc(C(c2ccncc2)C2CCN(C(=O)N3CC[C@@H]4OCC(=O)N[C@@H]4C3)CC2)c1` (single isomer, unassigned) [Example 177, (4aR,8aS)-6-[4-[(R or S)-(3-methylsulfonylphenyl)-(4-pyridyl)methyl]piperidine-1-carbonyl]-4,4a,5,7,8,8a-hexahydropyrido[4,3-b][1,4]oxazin-3-one], the pIC50 was 6.37.

Turning to `O=C1CO[C@H]2CCN(C(=O)N3CC(c4ccc(OCC(F)(F)F)cc4)C3)C[C@H]2N1` [Example 158, (4aR,8aS)-6-[3-[4-(2,2,2-Trifluoroethoxy)phenyl]azetidine-1-carbonyl]-4,4a,5,7,8,8a-hexahydropyrido[4,3-b][1,4]oxazin-3-one], the pIC50 is 8.15.

The molecule `O=C1CO[C@H]2CCN(C(=O)N3CC(c4ccc(N5CC(C(F)(F)F)C5)cc4)C3)C[C@H]2N1` [Example 129, (4aR,8aS)-6-(3-(4-(3-(Trifluoromethyl)azetidin-1-yl)phenyl)azetidine-1-carbonyl)hexahydro-2H-pyrido[4,3-b][1,4]oxazin-3(4H)-one] showed a negative-log IC50 (pIC50) of 8.70.

Take `O=C1CO[C@H]2CCN(C(=O)N3CC(c4nnc(-c5ccc(Cl)cc5Cl)o4)C3)C[C@H]2N1` [Example 253, (4aR,8aS)-6-[3-[5-(2,4-Dichlorophenyl)-1,3,4-oxadiazol-2-yl]azetidine-1-carbonyl]-4,4a,5,7,8,8a-hexahydropyrido[4,3-b][1,4]oxazin-3-one]: the negative-log IC50 (pIC50) is 8.40. This pIC50 lies 0.30 log units lower than the previous one.

`CC(OC1CN(C(=O)N2CC[C@@H]3OCC(=O)N[C@@H]3C2)C1)c1ccc(C(F)(F)F)cc1` (single isomer, unassigned) [Example 115, (4aR,8aS)-6-(3-(1-(S or R)-4-(Trifluoromethyl)phenyl)ethoxy)azetidine-1-carbonyl)hexahydro-2H-pyrido[4,3-b][1,4]oxazin-3(4H)-one] showed a pIC50 of 7.10.

The record behind these values is patent US20230117324A1, “OXAZINE MONOACYLGLYCEROL LIPASE (MAGL) INHIBITORS” (Hoffmann-La Roche Inc., priority 2018, published 2023).
